# Laboratory results as given in patent publication US7745465B2, “Method of enhancing cellular production of molecular chaperone, hydroxylamine derivatives useful for enhancing the chaperone production and the preparation thereof” (CytRx Corporation, priority 1995, dated 2010).
# How the values were obtained:
# plasma membrane fluidity = test: Steady-state fluorescence anisotropy of DPH-PA in serum deprived cells; type: cell-based; settings: both cell models
# Protocol: Experiments were carried out using WEH1 mouse fibrosarcoma and H9c2 rat heart muscle cell lines divided into three groups: • control (10% FCS fetal calf serum) • serum deprived • N-[2-hydroxy-3-(1-piperidinyl)propoxy]-3-pyridinecarboximidoyl chloride maleate (10^−5 M) treated and serum deprived 1.2(i) Serum Deprivation and MTT Test
# Cell suspensions of […] in PBS were labeled by the addition of DPH-PA (3-[p-(6-Phenyl)-1,3,5-hexatrienyl]phenylpropionic acid) dissolved in tetrahydrofuran at a final concentration of 0.1 :M and incubated for 10 min. at 37 C. The amount of organic solvent added was 0.05% to avoid its effect on cell membranes. […] Fluorescence measurements were carried out at 37° C. using a Quanta Master QM-1 T-format luminescence spectrometer (Photon Technology Int. Inc., N.J. USA) equipped with polarizers in the excitation and in the two emission light path. […] The measured fluorescence intensities were corrected for background fluorescence and light scattering from the unlabeled sample. The fluorescence anisotropy was calculated as rs=(IVV−G·IVH)/(IVV+(2×G×IVH))
# where IVV and IVH are observed intensities measured with polarizers parallel and perpendicular to the vertically polarized exciting beam, respectively. […]
# Grp94 = test: Western blot of Grp94 in heat shocked H9c2 cells; type: cell-based, rat
# Protocol: Experiments set forth in this section were conducted to determine whether N-[2-hydroxy-3-(1-piperidinyl)propoxy]-3-pyridinecarboximidoyl chloride maleate acts to increase the expression of molecular chaperon by a cell. The accumulation of different heat shock proteins subsequent to a period of exposure to heat shock alone, and to heat shock in combination with N-[2-hydroxy-3-(1-piperidinyl)propoxy]-3-pyridinecarboximidoyl chloride maleate administration, was examined by adding 10^−5 M of N-[2-hydroxy-3-(1-piperidinyl)propoxy]-3-pyridinecarboximidoyl chloride maleate before, during, or immediately after hyperthermic treatment of heart myogenic cells (H9c2 cells).
# The embryonic rat heart-derived cell line H9c2 was obtained from European Collection of Animal cell Cultures (ECACC) (88092904). The cells were maintained at 37° C. in Dulbecco's modified Eagle's medium (DMEM) supplemented with 10% fetal calf serum (GIBCO) in JOUAN C02 thermostat (5% CO2).
# Heat shock was performed at 43° C. in CO2 thermostat for the given time intervals (20, 40, 60, 90 and 120 min.). Cells were then taken back to 37° C. for 6 hours and proteins were extracted for SDS-PAGE. […]
# Protein concentration was determined from 5:1 samples by the Bradford assay (M. M. Braford, Anal. Biochem., 72: 248-254 (1976)) in three parallel. […]
# Hsp72 = test: Heat stress induced hsp72 expression in rat testicular explant; type: cell-based; settings: 10^−5 M, 15 min. before 43° C. 30 min.
# In short: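 Testicular tubule explants from 200 g CFY rats in MEM with 10% FBS, preincubated 1 h at 37° C., then treated with 10^−5 M compound for 15 min. Heat shock at 43° C. for 30 min; induced hsp72 measured after further 6 h at 37° C.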
# P 1 = test: P1 transcription factor activity in yeast cells; type: cell-based; settings: minimal medium
# Text: It was also investigated if the activity of AP-1 and P 1 transcription factors can be modulated by N-[2-hydroxy-3-(1-piperidinyl)propoxy]-3-piridinecarboximidoyl chloride maleate in yeast cells exposed to various stress conditions.
structure (smiles),measurement,setting,value
O=C(O)/C=C\C(=O)O.OC(CON=C(Cl)c1cccnc1)CN1CCCCC1 (centres unmarked) [N-[2-hydroxy-3-(1-piperidinyl)-propoxy]3-pyridinecarboximidoyl chloride maleate],membrane physical state (fluorescence anisotropy of DPH-PA),plasma membrane fluidity,almost complete preservation of the membrane physical state
same,effect on Grp94 level,Grp94; addition during recovery from heat stress lasting for 40 to 60 min.,almost effective as the administration
same,increase of Grp94 compared to 43° C. treatment,Grp94; preaddition of the drug combined with a 20 min. long heat shock,4 times
same,Level of hsp72 relative to the stress exposed control,Hsp72,+ + +
same,activity of P 1,P 1,activity decreased
